# According to patent US20030148404A1, “Peptides and substances, methods and devices using same for diagnosing and treating neurodegenerative disorders” (Ramot University Authority For Applied Research & …, priority 2000, published 2003):
# Non-standard residues stand in square brackets, D forms with d. No end group written: not given here. pS = N[C@@H](COP(=O)(O)O)C(=O)O
# Legend:
# anti-NF—H antibodies [1] = test: Streptavidin-biotin ELISA: serum IgG binding to biotinylated NF-H peptide (protocol optimisation, pooled AD serum); design: species or system human; settings: serum pooled from 10 AD patients; streptavidin plates blocked or not blocked; FIG. 1
# Method: Solutions and Materials: Tris Buffered Saline (TBS): 50 mM Tris-HCl, pH 7.4 (Tris (Sigma, T-1378); HCl (Merck 1.00319.1000)) 200 mM NaCl (Merck, 1.06404.1000). TBST: 0.05% (w/v) Tween-20 (Sigma, P-7949) in TBS. Phosphate Buffered Saline (PBS): 0.1 M phosphate buffer, pH 7.2 (Sodium phosphate, monobasic (Sigma. S-8182) and Sodium phosphate, dibasic (Sigma, S-7907)). 200 mM NaCl (Merck, 1.06404.1000). PBST: 0.05% (w/v) Tween-20 (Sigma, P-7949) in PBS. Dilution/Blocking buffer: 0.5% Gelatin (Difco, 0143-17-9) in TBST. Streptavidin stock solution: 2 mg/ml Streptavidin (Sigma, S4762) in purified water. Aliquoted and kept at −20° C., this solution is stable indefinitely. Multiwell Plates: Nunc Maxisorp (Cat. No. 442404) 96 well C-shaped microplates. Secondary antibody: Goat anti-human IgG Horse radish peroxidase conjugate (Jackson, 109-035-088). Substrate solution: 1 mg/ml OPD (Sigma, P-8412)+0.005% H2O2 (Merck, 1.07210.0250) in […] Sodium Citrate buffer, pH 5 (Merck, 1.00 244.1000).
# A Streptavidin stock solution (2 mg/ml Streptavidin prepared in purified water, aliquoted, and stored at −20° C.) was diluted 1:400 in ddH2O and a 100 μl aliquot was added to each well of a multiwell plate (96 well C-shaped microplates). […]
# OD was measured at 450 nm and 620 nm every minute over a period of 10-15 minutes. […]
# anti-NF—H antibodies [2] = test: ELISA comparison of AD and NC sera with peptides; separation algorithms and grouping of peptides into FACTs; assay type: binding, human; settings: single peptide
# Method: A Streptavidin stock solution (2 mg/ml Streptavidin prepared in purified water, aliquoted, and stored at −20° C.) was diluted 1:400 in ddH2O and a 100 μl aliquot was added to each well of a multiwell plate (96 well C-shaped microplates). The plates were incubated at 37° C. overnight until the liquid was entirely evaporated and stored until use at 4° C. in plastic bags containing a desiccating material. Such coated plates retained their activity for at least few days. The plates were washed 4 times by immersing in TBST. 200 μl of blocking solution were added to each of the wells. The plates were then incubated for 1 hour at room temperature. 100 μl of the biotinylated peptide (1 μg/ml in TBST) were added to each of the wells with the exception of the control wells. The plates were then incubated for 1 hour at room temperature.
# Following incubation, the plates were washed in TBST 4 times as above. A 100 μl aliquot of serum which was diluted in a dilution buffer was added to each well and the plates were incubated for 1 hour at room temperature.
# Following this incubation the wells were washed in TBST 4 times as above. A 100 μl aliquot of a secondary antibody (Goat anti-human IgG Horse radish peroxidase conjugate) which was diluted 1:2000 in dilution buffer was added to each well and the plates were incubated for 1 hour at room temperature.
# The wells were then washed in TBST 4 times as above followed by two washes in TBS (TBST w/o Tween-20).
# A 100 μl aliquot of the substrate solution was added to each well and the plates were incubated at room temperature.
# OD was measured at 450 nm and 620 nm every minute over a period of 10-15 minutes.
# Employing the above optimized parameters, eight AD and eight NC sera were analyzed using peptide 3M (SEQ ID NO:31). The experiment was repeated over a period of four days, employing four different plates each day. Two plates were preblocked with Gelatin, while two were not. In one experiment chloroform treated serum was analyzed on two additional plates. Three AD sera consistently gave rise to high signals in all experiments. One AD serum caused high signals in 10 out of the 13 plates and four AD sera were consistently negative. One NC sera caused high signals in some of the plates in the experiments conducted on all four days. Two additional NC sera gave rise to high signals in some of the plates in the experiments conducted on three of the four days. […] The reproducibility of the experiments was assessed by averaging the rank-order numbers of each sample in every experiment (Table 3). […]
# A series of experiments were performed in which 48 AD and 48 NC were analyzed by the use of 17 different peptides (INO; 2L; 2LR; 3NO; 3L; 3M; 3R; 3LM; 3LR; 4LM; 4MR; 4LMR; 5LM; 6LR; 7MR; 8LMR and 8LMR-V). […]
sequence,measurement,setting,value
A K S P A E A K S(PO3H) P V K E E A K S P-OH (AKSPAEAK[pS]PVKEEAKSP-OH; N-terminus assumed; SMILES CC(C)[C@H](NC(=O)[C@@H]1CCCN1C(=O)[C@H](COP(=O)(O)O)NC(=O)[C@H](CCCCN)NC(=O)[C@H](C)NC(=O)[C@H](CCC(=O)O)NC(=O)[C@H](C)NC(=O)[C@@H]1CCCN1C(=O)[C@H](CO)NC(=O)[C@H](CCCCN)NC(=O)[C@H](C)N)C(=O)N[C@@H](CCCCN)C(=O)N[C@@H](CCC(=O)O)C(=O)N[C@@H](CCC(=O)O)C(=O)N[C@@H](C)C(=O)N[C@@H](CCCCN)C(=O)N[C@@H](CO)C(=O)N1CCC[C@H]1C(=O)O) [3M],saturating concentration of the peptide,anti-NF—H antibodies [1],0.4 to 0.8 µg/mL
same,sensitivity,anti-NF—H antibodies [2]; eight AD and eight NC samples,50%
same,specificity,anti-NF—H antibodies [2]; eight AD and eight NC samples,87%
same,AD cases detected,"anti-NF—H antibodies [2]; eight AD and eight NC sera, pre-blocked plates",four out of eight
same,false positive signal,"anti-NF—H antibodies [2]; eight AD and eight NC sera, pre-blocked plates (sample No. 485)",one
